Reference: the supplement of paper PMC10307832

Columns and labels:
Assay in all cases: relative viability (nuclei count vs DMSO), 5 days (fraction); higher = more cells survive
LK-2 = tested on: LK-2
Outline: (§1)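 Five library-drug doses in √10 steps were combined with a fixed anchor-drug dose, or a single drug was given alone, by pin tool to lung cancer cell lines in 1536-well plates the day after seeding. Nuclei were stained and counted after 5 days. Relative viability is the nuclei count in treated wells over that in vehicle wells, taken as the median of duplicate plates.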

NCI-H522 = tested on: NCI-H522
Outline: as §1

NCI-H1648 = tested on: NCI-H1648
Outline: as §1

LCLC-103H = tested on: LCLC-103H
Outline: as §1

NCI-H1355 = tested on: NCI-H1355
Outline: as §1

NCI-H1666 = tested on: NCI-H1666
Outline: as §1

IA-LM = tested on: IA-LM
Outline: as §1

COR-L 105 = tested on: COR-L 105
Outline: as §1

NCI-H520 = tested on: NCI-H520
Outline: as §1

## Nc1ccn([C@@H]2O[C@H](CO)[C@@H](O)[C@@H]2O)c(=O)n1 [Cytarabine] + O=C(CCCCCCC(=O)Nc1ccccc1)NO [Vorinostat] (partner 1 µM)
LK-2; first compound 0.005 µM
  relative viability: 0.244
LK-2; first compound 0.01581 µM
  relative viability: 0.29
LK-2; first compound 0.05 µM
  relative viability: 0.242
LK-2; first compound 0.1581 µM
  relative viability: 0.143
LK-2; first compound 0.5 µM
  relative viability: 0.119
NCI-H522; first compound 0.005 µM
  relative viability: 0.993
NCI-H522; first compound 0.01581 µM
  relative viability: 0.837
NCI-H522; first compound 0.05 µM
  relative viability: 0.694
NCI-H522; first compound 0.1581 µM
  relative viability: 0.615
NCI-H522; first compound 0.5 µM
  relative viability: 0.563
NCI-H1648; first compound 0.005 µM
  relative viability: 0.4
NCI-H1648; first compound 0.01581 µM
  relative viability: 0.354
NCI-H1648; first compound 0.05 µM
  relative viability: 0.556
NCI-H1648; first compound 0.1581 µM
  relative viability: 0.408
NCI-H1648; first compound 0.5 µM
  relative viability: 0.357
LCLC-103H; first compound 0.005 µM
  relative viability: 0.806
LCLC-103H; first compound 0.01581 µM
  relative viability: 0.861
LCLC-103H; first compound 0.05 µM
  relative viability: 0.758
LCLC-103H; first compound 0.1581 µM
  relative viability: 0.745
LCLC-103H; first compound 0.5 µM
  relative viability: 0.692
NCI-H1355; first compound 0.005 µM
  relative viability: 0.578
NCI-H1355; first compound 0.01581 µM
  relative viability: 0.638
NCI-H1355; first compound 0.05 µM
  relative viability: 0.64
NCI-H1355; first compound 0.1581 µM
  relative viability: 0.458
NCI-H1355; first compound 0.5 µM
  relative viability: 0.299
NCI-H1666; first compound 0.005 µM
  relative viability: 0.948
NCI-H1666; first compound 0.01581 µM
  relative viability: 0.843
NCI-H1666; first compound 0.05 µM
  relative viability: 0.768
NCI-H1666; first compound 0.1581 µM
  relative viability: 0.733
NCI-H1666; first compound 0.5 µM
  relative viability: 0.619
IA-LM; first compound 0.005 µM
  relative viability: 0.868
IA-LM; first compound 0.01581 µM
  relative viability: 1.03
IA-LM; first compound 0.05 µM
  relative viability: 1.07
IA-LM; first compound 0.1581 µM
  relative viability: 0.518
IA-LM; first compound 0.5 µM
  relative viability: 0.578
COR-L 105; first compound 0.005 µM
  relative viability: 0.816
COR-L 105; first compound 0.01581 µM
  relative viability: 0.79
COR-L 105; first compound 0.05 µM
  relative viability: 0.55
COR-L 105; first compound 0.1581 µM
  relative viability: 0.583
COR-L 105; first compound 0.5 µM
  relative viability: 0.418
NCI-H520; first compound 0.005 µM
  relative viability: 0.636
NCI-H520; first compound 0.01581 µM
  relative viability: 0.668
NCI-H520; first compound 0.05 µM
  relative viability: 0.776
NCI-H520; first compound 0.1581 µM
  relative viability: 0.555
NCI-H520; first compound 0.5 µM
  relative viability: 0.502
